28 compounds from US20170334899A1, “AMINO-SUBSTITUTED ISOTHIAZOLES” (Bayer Pharma Aktiengesellschaft, priority 2014, published 2017) can be followed below.

Each structure is given as a SMILES string.

The target of this experiment is T1, catalytic domain of human Bub1 (amino acids 704-1085) (Homo sapiens, UniProt O43683).
T1 construct: catalytic domain of human Bub1 (amino acids 704-1085); His6 (N); made in house; host or cells: insect cells (Hi5)
T1 sequence (O43683 704-1085): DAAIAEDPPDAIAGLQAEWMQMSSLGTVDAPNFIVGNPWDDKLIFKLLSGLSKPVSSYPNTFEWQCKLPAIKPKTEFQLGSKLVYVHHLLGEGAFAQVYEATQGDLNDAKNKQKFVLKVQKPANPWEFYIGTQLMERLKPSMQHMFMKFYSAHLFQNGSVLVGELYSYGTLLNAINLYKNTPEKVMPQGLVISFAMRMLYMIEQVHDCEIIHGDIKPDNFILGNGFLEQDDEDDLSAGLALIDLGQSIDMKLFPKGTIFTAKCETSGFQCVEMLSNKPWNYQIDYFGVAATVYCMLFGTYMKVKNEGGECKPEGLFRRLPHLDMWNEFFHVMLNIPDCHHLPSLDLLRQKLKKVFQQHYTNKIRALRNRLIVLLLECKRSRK
The experiment is described as follows: Bub1 kinase assay (TR-FRET). The format is biochemical. The note with it: 10 μM ATP, avg, read-out: Bub1 avg (IC50 [mol/l]). In short, it runs like this: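 Readout is the 665/620 nm TR-FRET ratio from anti-phosphoserine antibody, Eu-labelled anti-mouse IgG and streptavidin-XL665, scaled between no-enzyme and uninhibited controls. Reaction: 1 μM biotinylated peptide, 10 μM ATP, 60 min, 22 °C, after 15 min compound preincubation with His6-Bub1 (704-1085, insect-expressed, ~200 ng/ml).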
(Time-resolved FRET reads energy transfer from a long-lived donor to a nearby acceptor.)
As to `Cc1nsc(Nc2cnc(C(F)(F)F)cn2)c1C(=O)Nc1ccc(F)c(OCCCN(C)CCC(F)(F)F)c1` [Example 303, N-(4-fluoro-3-{3-[methyl(3,3,3-trifluoropropyl)amino]propoxy}phenyl)-3-methyl-5-{[5-(trifluoromethyl)pyrazin-2-yl]amino}-1,2-thiazole-4-carboxamide], the IC50 was at least 20 µM.

As for `Cc1nsc(Nc2cnc3ccccc3n2)c1C(=O)Nc1cccc(C(=O)NC(C)C)c1` [Example 253, N-[3-(isopropylcarbamoyl)phenyl]-3-methyl-5-(quinoxalin-2-ylamino)-1,2-thiazole-4-carboxamide], the IC50 was 0.32 µM.

As for `Cc1nsc(Nc2cnc(C(F)(F)F)cn2)c1C(=O)Nc1ccc(F)c(OC2CCN(CC(F)(F)F)C2)c1` (stereo not shown) [Example 315, N-(4-fluoro-3-{[1-(2,2,2-trifluoroethyl)pyrrolidin-3-yl]oxy}phenyl)-3-methyl-5-{[5-(trifluoromethyl)pyrazin-2-yl]amino}-1,2-thiazole-4-carboxamide], the IC50 is at least 20 µM.

As to `CCN1CCN(C(=O)c2ccc(NC(=O)c3c(C)nsc3Nc3cncc(C(F)(F)F)n3)cc2)CC1` [Example 275, N-{4-[(4-ethylpiperazin-1-yl)carbonyl]phenyl}-3-methyl-5-{[6-(trifluoromethyl)pyrazin-2-yl]amino}-1,2-thiazole-4-carboxamide], the IC50 is over 20 µM.

For the compound `Cc1nsc(Nc2cncc(C(F)(F)F)n2)c1C(=O)Nc1ccc(C(=O)N2CCN(CC(F)(F)F)CC2)cc1` [Example 272, 3-methyl-N-(4-{[4-(2,2,2-trifluoroethyl)piperazin-1-yl]carbonyl}phenyl)-5-{[6-(trifluoromethyl)pyrazin-2-yl]amino}-1,2-thiazole-4-carboxamide], the IC50 is over 20 µM.

As for `Cc1nsc(Nc2cnc3ccccc3n2)c1C(=O)Nc1cccc(NS(=O)(=O)C2CCN(CC(F)F)CC2)c1` [Example 282, N-[3-({[1-(2,2-difluoroethyl)piperidin-4-yl]sulfonyl}amino)phenyl]-3-methyl-5-(quinoxalin-2-ylamino)-1,2-thiazole-4-carboxamide], the IC50 is over 20 µM.

As for `Cc1nsc(Nc2ccc(C#N)cn2)c1C(=O)Nc1cccc(C(=O)NC2CC2)c1` [Example 250, 5-[(5-cyanopyridin-2-yl)amino]-N-[3-(cyclopropylcarbamoyl)phenyl]-3-methyl-1,2-thiazole-4-carboxamide], the IC50 was over 20 µM.

For `Cc1nsc(Nc2cncc(C(F)(F)F)n2)c1C(=O)Nc1ccc(C(=O)N2CCN(CCF)CC2)cc1` [Example 274, N-(4-{[4-(2-fluoroethyl)piperazin-1-yl]carbonyl}phenyl)-3-methyl-5-{[6-(trifluoromethyl)pyrazin-2-yl]amino}-1,2-thiazole-4-carboxamide], the IC50 was over 20 µM.

As for `Cc1nsc(Nc2cnc(C(F)(F)F)cn2)c1C(=O)Nc1ccc(OC2CCN(CCF)C2)nc1` (stereo not shown) [Example 295, N-(6-{[1-(2-fluoroethyl)pyrrolidin-3-yl]oxy}pyridin-3-yl)-3-methyl-5-{[5-(trifluoromethyl)pyrazin-2-yl]amino}-1,2-thiazole-4-carboxamide], the IC50 is over 20 µM.

For the compound `Cc1nsc(Nc2cncc(C(F)(F)F)n2)c1C(=O)Nc1ccc(OCCCO)nc1` [Example 278, N-[6-(3-hydroxypropoxy)pyridin-3-yl]-3-methyl-5-{[6-(trifluoromethyl)pyrazin-2-yl]amino}-1,2-thiazole-4-carboxamide], the IC50 is over 20 µM.

With `Cc1nsc(Nc2cnc(C(F)(F)F)cn2)c1C(=O)Nc1ccc(F)c(OCC2CCN(CCF)CC2)c1` [Example 309, N-(4-fluoro-3-{[1-(2-fluoroethyl)piperidin-4-yl]methoxy}phenyl)-3-methyl-5-{[5-(trifluoromethyl)pyrazin-2-yl]amino}-1,2-thiazole-4-carboxamide], the IC50 is at least 20 µM.

Take `Cc1nsc(Nc2cnc(C(F)(F)F)cn2)c1C(=O)Nc1ccc(F)c(OCC2CCN(C(CF)CF)C2)c1` (stereo not shown) [Example 320, N-(3-{[1-(1,3-difluoropropan-2-yl)pyrrolidin-3-yl]methoxy}-4-fluorophenyl)-3-methyl-5-{[5-(trifluoromethyl)pyrazin-2-yl]amino}-1,2-thiazole-4-carboxamide]: the IC50 was at least 20 µM.

As for `Cc1nsc(Nc2cnc3ccccc3n2)c1C(=O)Nc1cccc(NS(=O)(=O)C2CN(CC(F)F)C2)c1` [Example 286, N-[3-({[1-(2,2-difluoroethyl)azetidin-3-yl]sulfonyl}amino)phenyl]-3-methyl-5-(quinoxalin-2-ylamino)-1,2-thiazole-4-carboxamide], the IC50 is over 20 µM.

As to `Cc1nsc(Nc2cnc(C(F)(F)F)cn2)c1C(=O)Nc1ccc(OC2CCN(C(CF)CF)C2)nc1` (stereo not shown) [Example 313, N-(6-{[1-(1,3-difluoropropan-2-yl)pyrrolidin-3-yl]oxy}pyridin-3-yl)-3-methyl-5-{[5-(trifluoromethyl)pyrazin-2-yl]amino}-1,2-thiazole-4-carboxamide], the IC50 was at least 20 µM.

For `Cc1nsc(Nc2cnc(C(F)(F)F)cn2)c1C(=O)Nc1ccc(F)c(OCCCNCC(F)(F)F)c1` [Example 306, N-(4-fluoro-3-{3-[(2,2,2-trifluoroethyl)amino]propoxy}phenyl)-3-methyl-5-{[5-(trifluoromethyl)pyrazin-2-yl]amino}-1,2-thiazole-4-carboxamide], the IC50 was at least 20 µM.

Take `Cc1nsc(Nc2cnc3ccccc3n2)c1C(=O)Nc1cccc(NS(=O)(=O)C2CCN(C(=O)OC(C)(C)C)C2)c1` (stereo not shown) [Example 290, tert-butyl 3-{[3-({[3-methyl-5-(quinoxalin-2-ylamino)-1,2-thiazol-4-yl]carbonyl}amino)phenyl]sulfamoyl} pyrrolidine-1-carboxylate]: the IC50 was over 20 µM.

As to `Cc1nsc(Nc2cncc(C(F)(F)F)n2)c1C(=O)Nc1ccc(F)c(OC2CCN(CC(F)(F)F)CC2)c1` [Example 267, N-(4-fluoro-3-{[1-(2,2,2-trifluoroethyl)piperidin-4-yl]oxy}phenyl)-3-methyl-5-{[6-(trifluoromethyl)pyrazin-2-yl]amino}-1,2-thiazole-4-carboxamide], the IC50 was over 20 µM.

In the case of `CCNC(=O)c1cccc(NC(=O)c2c(C)nsc2Nc2cnc3ccccc3n2)c1` [Example 251, N-[3-(ethylcarbamoyl)phenyl]-3-methyl-5-(quinoxalin-2-ylamino)-1,2-thiazole-4-carboxamide], the IC50 stood at 0.6 µM.

`Cc1nsc(Nc2cnc(C(F)(F)F)cn2)c1C(=O)Nc1ccc(OC2CCN(CCC(F)(F)F)C2)nc1` (stereo not shown) [Example 298, 3-methyl-5-{[5-(trifluoromethyl)pyrazin-2-yl]amino}-N-(6-{[1-(3,3,3-trifluoropropyl)pyrrolidin-3-yl]oxy}pyridin-3-yl)-1,2-thiazole-4-carboxamide]: the IC50 was over 20 µM.

For the compound `Cc1nsc(Nc2cnc3ccccc3n2)c1C(=O)Nc1cccc(NS(=O)(=O)C2CN(CCF)C2)c1` [Example 287, N-[3-({[1-(2-fluoroethyl)azetidin-3-yl]sulfonyl}amino)phenyl]-3-methyl-5-(quinoxalin-2-ylamino)-1,2-thiazole-4-carboxamide], the IC50 is over 20 µM.

`Cc1nsc(Nc2cncc(C(F)(F)F)n2)c1C(=O)Nc1ccc(C(=O)N2CCN(CC(F)F)CC2)cc1` [Example 273, N-(4-{[4-(2,2-difluoroethyl)piperazin-1-yl]carbonyl}phenyl)-3-methyl-5-{[6-(trifluoromethyl)pyrazin-2-yl]amino}-1,2-thiazole-4-carboxamide]: the IC50 was over 20 µM.

Consider `Cc1nsc(Nc2cnc(C(F)(F)F)cn2)c1C(=O)Nc1ccc(F)c(OCC2CCN(CC(F)F)CC2)c1` [Example 308, N-(3-{[1-(2,2-difluoroethyl)piperidin-4-yl]methoxy}-4-fluorophenyl)-3-methyl-5-{[5-(trifluoromethyl)pyrazin-2-yl]amino}-1,2-thiazole-4-carboxamide], for which the IC50 was at least 20 µM.

As to `Cc1nsc(Nc2cnc3ccccc3n2)c1C(=O)Nc1cccc(NS(=O)(=O)C2CCCN(C(=O)OCc3ccccc3)C2)c1` (stereo not shown) [Example 291, benzyl 3-{[3-({[3-methyl-5-(quinoxalin-2-ylamino)-1,2-thiazol-4-yl]carbonyl}amino)phenyl]sulfamoyl} piperidine-1-carboxylate], the IC50 was over 20 µM.

For `Cc1nsc(Nc2cc(C#N)ccn2)c1C(=O)Nc1ccc(OC2CCNCC2)nc1` [Example 24, 5-[(4-Cyanopyridin-2-yl)amino]-3-methyl-N-[6-(piperidin-4-yloxy)pyridin-3-yl]-1,2-thiazole-4-carboxamide], the IC50 was at least 20 µM.

With `Cc1nsc(Nc2cnc(C(F)(F)F)cn2)c1C(=O)Nc1ccc(F)c(OCC2CCN(CCF)C2)c1` (stereo not shown) [Example 317, N-(4-fluoro-3-{[1-(2-fluoroethyl)pyrrolidin-3-yl]methoxy}phenyl)-3-methyl-5-{[5-(trifluoromethyl)pyrazin-2-yl]amino}-1,2-thiazole-4-carboxamide], the IC50 is over 20 µM.

In the case of `Cc1nsc(Nc2cnc(C(F)(F)F)cn2)c1C(=O)Nc1ccc(F)c(OC2CCN(CCF)CC2)c1` [Example 266, N-(4-fluoro-3-{[1-(2-fluoroethyl)piperidin-4-yl]oxy}phenyl)-3-methyl-5-{[5-(trifluoromethyl)pyrazin-2-yl]amino}-1,2-thiazole-4-carboxamide], the IC50 was over 20 µM.

Turning to `Cc1nsc(Nc2cnc(C(F)(F)F)cn2)c1C(=O)Nc1ccc(F)c(OCC2CCN(CC(F)F)C2)c1` (stereo not shown) [Example 316, N-(3-{[1-(2,2-difluoroethyl)pyrrolidin-3-yl]methoxy}-4-fluorophenyl)-3-methyl-5-{[5-(trifluoromethyl)pyrazin-2-yl]amino}-1,2-thiazole-4-carboxamide], the IC50 is at least 20 µM.

`Cc1nsc(Nc2cnc(C(F)(F)F)cn2)c1C(=O)Nc1cccc(NC(=O)OC(C)(C)C)c1` [Example 284, 3-tert-butyl (3-{[(3-methyl-5-{[5-(trifluoromethyl)pyrazin-2-yl]amino}-1,2-thiazol-4-yl)carbonyl]amino}phenyl)carbamate]: the IC50 was over 20 µM.
